Where “and” joins values, the source holds several entries; their conditions need not be identical. Equal entries are not always repeated.
Experiments:
PKG cKD line = assay: Compound susceptibility assay using cKD lines (72 h, Renilla luciferase); type: cell-based, Plasmodium falciparum; details: PKG cKD line
From the text: (§1) To study the interaction between the compounds and PKG (PF3D7_1436600), AAT (PF3D7_1231400), CDPK1 (PF3D7_0217500), TKL3 (PF3D7_1349300), PP1 (PF3D7_1414400), and URP (PF3D7_0808300), cKD lines were generated by fusing the transcripts with RNA aptamers for translation regulation with the TetR/DOZI system ([Ganesan et al., 2016]). The right homology regions (RHR) of each target gene were amplified by PCR, using the primers listed in Table S1 (A), and along with the left homology regions (LHR) were fused to the re-codonized 3'-end region of the gene. Single guide RNA fragments were synthesized using the BioXP™ 3200 System (SGI-DNA; Table S1 (A)) and were cloned into the pSN054 vector ([Nasamu et al., 2019]) to install the C-terminal epitope tags V5 and 2x-hemagglutinin (HA) followed by a 10x RNA aptamer array and the TetR-DOZI expression cassette. This cassette also contained Blasticidin S-deaminase for selection in the parasites and the reporter gene Renilla luciferase (RLuc). The 3'-end of each target was re-codonized to avoid further modifications of the edited locus in the parasite via removal of the PAM site. Donor vector generation was carried out via Gibson assembly, and the final construct sequence was confirmed by restriction digests and Sanger sequencing.
(§2) Transfection into parasites was carried out by preloading erythrocytes with linearized vectors as described previously ([Deitsch et al., 2001]). Briefly, 50 μg of purified plasmid DNA was mixed with human RBC and subjected to 8 square wave electroporation pulses of 365 V for 1 ms each, separated by 0.1 s in a 0.2 cm cuvette. The plasmid DNA preloaded cells were inoculated with NF54 parasites expressing Cas9 and T7 RNA polymerase, maintained in 500 nM anhydrotetracycline (aTc, Sigma-Aldrich 37919), and drug selection with 2.5 μg/mL of Blasticidin (RPI Corp B12150-0.1) was initiated four days after transfection. Emergence of transfectants was monitored via Giemsa smears and RLuc measurements.
(§3) Synchronized ring-stage cKD parasites in varying aTc concentrations (high = 50 nM, intermediate = 1.5 nM, low = 1 nM, and no aTc) were distributed into the drug plate. No-drug treatment and treatment with a lethal dose of chloroquine (200 nM) served as reference controls.

PP1 cKD line = assay: as above; type: cell-based, Plasmodium falciparum
From the text: as §1, §2, §3

TKL3 cKD line = assay: as above; type: cell-based, Plasmodium falciparum; details: TKL3 cKD line
From the text: as §1, §2, §3

URP cKD line = assay: as above; type: cell-based, Plasmodium falciparum
From the text: as §1, §2, §3

AAT cKD line = assay: as above; type: cell-based, Plasmodium falciparum; details: AAT cKD line
From the text: as §1, §2, §3

CDPK1 cKD line = assay: as above; type: cell-based, Plasmodium falciparum; details: CDPK1 cKD line
From the text: as §1, §2, §3

sel. Dd2-B2 TKL3T1268R = assay: 72-h ABS assay, MMV030084-selected line; type: cell-based, Plasmodium falciparum
Experimental: (§4) Synchronicity was achieved using three rounds of sorbitol treatment on early rings, spaced 48 h apart, followed by magnetic purification of segmented schizonts following the final sorbitol treatment. Parasites were highly synchronous to within a 3 h window of development. Assays were repeated on at least three independent occasions (each with technical duplicates) and statistical significance was assessed using Mann Whitney U tests.
The resulting MMV030084-resistant parasites were cloned by limiting dilution ([Baker et al., 2017]) to obtain genetically homogenous cultures for further phenotyping and whole-genome sequencing. A second round of […]. […] Drug susceptibility of resistant lines was assessed using a 72 h ABS assay as described above, and a Mann Whitney U test was applied to assess statistically significant differences.

Pf Dd2-B2 ABS parasites = assay: 72-h asexual blood stage (ABS) growth inhibition assay, Dd2-B2; type: cell-based, Plasmodium falciparum; details: Dd2-B2 wild-type, 72 h; read-out: Mean IC50, 72 h ABS activity
Experimental: as §4

[1] = test system: recombinant TKL3 kinase domain; assay: Radioactive in vitro kinase assay with recombinant TKL3 kinase domain; type: biochemical, Plasmodium falciparum; details: 20 μM compound
Experimental: Recombinant proteins were expressed in E. coli as previously described ([Abdi et al., 2010]). […] The cultures were then cooled to 20°C followed by induction of protein expression with 0.5 mM IPTG and further incubation at 20°C, 200 rpm for 16 h. Cultures were harvested by centrifugation at 4000g, 4°C for 10 min. Bacterial pellets were washed once in 1× PBS and were stored at −80°C. Cell pellets were resuspended in ice-cold Lysis Buffer (50 mM sodium phosphate, pH 8.0, 400 mM NaCl, 5 % (w/v) glycerol, 0.1 % (v/v) Triton X-100, 20 mM imidazole, 2 mM β-mercaptoethanol, 1× Roche protease inhibitor cocktail EDTA-free, 1 mg/ml lysozyme). Cells were disrupted by sonication. Protein was bound on a HisTrap HP column and eluted with a linear gradient of increasing imidazole concentrations. The peak fractions as determined by A280 trace were pooled together and further purified by size exclusion chromatography on a S200 gel filtration column equilibrated in 25 mM Tris pH 7.5, 100 mM NaCl, 5 % (w/v) glycerol, 1 mM DTT. Protein was pooled and concentrated. Final concentration was determined using a Bradford assay with a BSA protein standard.
Kinase assays containing 3 μg of recombinant kinase (WT or mutant) were performed in kinase assay buffer (25 mM Hepes, pH 7.5, 2 mM MnCl2, 10 mM β-glycerophosphate, 10 mM NaF, 25 μM ATP (containing 5 μCi [γ-^32P]-ATP-3000 mCi/mmol (PerkinElmer)), 5 μg substrate myelin basic protein (MBP) and ± 20 μM inhibitor) in a final reaction volume of 20 μl and incubated at 30°C for 30 min. Reactions were stopped by the addition of 5× Laemmli sample buffer and heated to 98°C for 5 min. Proteins were resolved by 4-12 % SDS-PAGE and stained in Coomassie Brilliant Blue. Kinase activity was detected by phosphorimaging. Imaging was performed on a Typhoon 5 Biomolecular imager (GE Healthcare Life Sciences).

[2] = target: putative amino acid transporter (AAT) (PF3D7_1231400) (Plasmodium falciparum, UniProt Q8I5A6); assay: Competitive chemoproteomics in Pf lysates (Kinobeads / bead-immobilized compound); type: binding; details: lysates exposed to 40 μM of the same compound vs vehicle
putative amino acid transporter (AAT) (PF3D7_1231400), sequence (Q8I5A6 entry or part of it): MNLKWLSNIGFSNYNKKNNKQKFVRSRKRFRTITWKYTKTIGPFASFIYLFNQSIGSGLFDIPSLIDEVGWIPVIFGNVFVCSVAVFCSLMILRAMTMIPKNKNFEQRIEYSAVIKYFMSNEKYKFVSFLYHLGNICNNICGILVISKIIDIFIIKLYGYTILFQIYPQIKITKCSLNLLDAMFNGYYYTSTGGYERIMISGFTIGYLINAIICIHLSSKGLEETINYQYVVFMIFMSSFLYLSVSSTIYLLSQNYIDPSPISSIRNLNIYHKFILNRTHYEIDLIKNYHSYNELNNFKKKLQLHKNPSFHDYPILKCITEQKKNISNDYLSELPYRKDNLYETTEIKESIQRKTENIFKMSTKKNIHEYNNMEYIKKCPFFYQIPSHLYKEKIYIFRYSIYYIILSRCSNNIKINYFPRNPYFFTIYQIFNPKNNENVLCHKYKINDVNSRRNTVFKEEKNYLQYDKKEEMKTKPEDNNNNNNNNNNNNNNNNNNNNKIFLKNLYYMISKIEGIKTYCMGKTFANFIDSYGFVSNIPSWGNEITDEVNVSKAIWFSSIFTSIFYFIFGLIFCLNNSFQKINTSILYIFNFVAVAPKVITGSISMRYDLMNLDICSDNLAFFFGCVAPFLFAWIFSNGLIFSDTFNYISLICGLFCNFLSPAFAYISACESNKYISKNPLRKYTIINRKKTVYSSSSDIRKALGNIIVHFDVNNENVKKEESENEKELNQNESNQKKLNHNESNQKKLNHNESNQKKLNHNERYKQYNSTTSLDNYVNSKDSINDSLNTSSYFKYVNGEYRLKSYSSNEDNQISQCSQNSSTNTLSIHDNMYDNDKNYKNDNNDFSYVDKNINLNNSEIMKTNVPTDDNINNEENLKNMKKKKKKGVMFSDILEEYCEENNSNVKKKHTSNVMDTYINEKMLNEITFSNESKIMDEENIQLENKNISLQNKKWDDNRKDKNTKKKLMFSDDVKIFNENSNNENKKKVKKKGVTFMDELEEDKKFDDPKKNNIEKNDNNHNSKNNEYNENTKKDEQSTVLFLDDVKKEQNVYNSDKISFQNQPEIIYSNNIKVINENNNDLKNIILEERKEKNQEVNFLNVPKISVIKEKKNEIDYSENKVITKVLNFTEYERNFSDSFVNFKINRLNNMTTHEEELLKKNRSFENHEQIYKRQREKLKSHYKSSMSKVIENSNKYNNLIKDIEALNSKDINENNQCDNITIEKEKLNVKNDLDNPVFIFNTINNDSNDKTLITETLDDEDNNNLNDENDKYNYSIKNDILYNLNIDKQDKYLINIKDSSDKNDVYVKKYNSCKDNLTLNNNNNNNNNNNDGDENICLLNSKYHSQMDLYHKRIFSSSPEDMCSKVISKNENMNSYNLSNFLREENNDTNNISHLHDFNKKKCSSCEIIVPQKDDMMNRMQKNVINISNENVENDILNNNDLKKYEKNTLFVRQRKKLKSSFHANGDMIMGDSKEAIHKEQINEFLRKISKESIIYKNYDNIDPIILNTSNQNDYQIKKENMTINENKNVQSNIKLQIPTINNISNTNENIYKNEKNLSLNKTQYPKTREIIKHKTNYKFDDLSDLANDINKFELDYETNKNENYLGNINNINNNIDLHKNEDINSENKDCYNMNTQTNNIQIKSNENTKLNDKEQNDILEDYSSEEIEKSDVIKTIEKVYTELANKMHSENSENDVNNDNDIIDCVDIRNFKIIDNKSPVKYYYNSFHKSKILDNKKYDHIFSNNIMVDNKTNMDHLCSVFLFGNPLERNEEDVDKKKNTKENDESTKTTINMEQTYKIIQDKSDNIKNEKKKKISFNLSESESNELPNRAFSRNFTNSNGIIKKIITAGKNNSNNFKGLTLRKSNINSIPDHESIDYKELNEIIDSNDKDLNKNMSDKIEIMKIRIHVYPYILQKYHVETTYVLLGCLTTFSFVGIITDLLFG
Experimental: (§5) Pf protein extracts were prepared as described elsewhere ([Paquet et al., 2017]). Parasite cultures at the trophozoite stage were harvested, washed twice in RPMI 1640 medium (Gibco), and lysed by the addition of saponin to a final concentration of 0.1% for 5 min at room temperature. Free parasites were sedimented by centrifugation (3500 rpm for 10 min), washed three times with phosphate-buffered saline, and stored at −80°C. Parasites were resuspended in cell lysis buffer (50 mM tris-HCl (pH 7.5), 5% glycerol, 1.5 mM MgCl2, […], 1 mM […], 25 mM sodium fluoride, 0.8% NP-40, EDTA-free protease inhibitor cocktail tablets (Roche Diagnostics), and 1 mM DTT) and disrupted by sonication (Sonics Vibra-Cell) using two 30-s cycles on ice at half-amplitude. After centrifugation (140,000g for 1 h at 4°C), soluble proteins were recovered from the supernatants, and protein concentrations of each sample were estimated using the Lowry-based DC assay (Bio-Rad). Samples were stored at −80°C until use.
(§6) Kinobeads were prepared by immobilizing Bis-(III) indolyl-maleimide, purvalanol B, staurosporine and CZC8004, and the analogs of PD173955, sunitinib and vandetanib on NHS-activated Sepharose 4 beads (Amersham) ([Bantscheff et al., 2007]). […] The chemoproteomic affinity-capturing experiments were performed as previously described ([Bantscheff et al., 2011]). Briefly, beads were washed and equilibrated in lysis buffer (50 mM Tris-HCl, pH 7.4, 0.4 % Igepal-CA630, 1.5 mM MgCl2, 5 % Glycerol, 150 mM NaCl, 25 mM NaF, 1 mM Na3VO4, 1 mM DTT, and one cOmplete EDTA-free protease inhibitor tablet (Roche) per 25 mL). The beads were incubated at 4°C for 1 h with either 0.1 ml (0.3 mg) Pf blood stage extract or 0.5 mL (2.5 mg) human cell/tissue protein extract (a mixture of HEK-293, K-562, Hep G2 , and placental cells), which was pre-incubated with compound or DMSO (vehicle control). 10 samples were measured in parallel (TMT 10-plex ([Werner et al., 2014])) to generate values for the affinity of the beads to the bound proteins (“depletion” values, 4 samples) and to generate IC50 values (6 samples) in a single experiment. Apparent dissociation constants were determined after accounting for protein depletion by the beads ([Bantscheff et al., 2011]). Beads were transferred to Filter plates (Durapore PVDF membrane, Merck Millipore), washed with lysis buffer, and eluted with SDS sample buffer.
(§7) Proteins were digested according to a modified single pot solid-phase sample preparation (SP3) protocol ([Hughes et al., 2014]). Peptides were labeled with isobaric mass tags (Thermo Fisher Scientific, Waltham, MA) using 10-plex TMT reagents, enabling relative quantification of 10 conditions in a single experiment ([Werner et al., 2014]). The labeling reactions and LC-MS/MS measurements using Q Exactive Orbitrap or Orbitrap Fusion Lumos mass spectrometers (Thermo Fisher Scientific) were performed as described elsewhere ([Sridharan et al., 2019]). Mascot 2.4 (Matrix Science, Boston, MA) was used for protein identification by using a 10 parts per million mass tolerance for peptide precursors and 20 mD (HCD) mass tolerance for fragment ions. To create the fasta file for mascot searching, all proteins corresponding to the taxonomy ‘Plasmodium falciparum (isolate 3D7)’ were downloaded from Uniprot (release 20170621) and supplemented with common contaminant protein sequences of bovine serum albumin, porcine trypsin and mouse, rat, sheep and dog keratins. To assess the false discovery rate (FDR), “decoy” proteins (reverse of all protein sequences) were created and added to the database, resulting in a database containing a total of 14266 protein sequences, with 50% forward and 50% reverse. For peptide and protein identification of human proteins see ([Sridharan et al., 2019]). […]

[3] = target: T1, calcium-dependent protein kinase 1 (CDPK1) (PF3D7_0217500) (Plasmodium falciparum, UniProt P62344); assay: as above; type: binding; details: lysates exposed to 40 μM of the same compound vs vehicle
T1 construct: endogenous in cells; host or cells: P. falciparum asexual blood-stage parasites (trophozoite stage)
T1 sequence (P62344 whole entry): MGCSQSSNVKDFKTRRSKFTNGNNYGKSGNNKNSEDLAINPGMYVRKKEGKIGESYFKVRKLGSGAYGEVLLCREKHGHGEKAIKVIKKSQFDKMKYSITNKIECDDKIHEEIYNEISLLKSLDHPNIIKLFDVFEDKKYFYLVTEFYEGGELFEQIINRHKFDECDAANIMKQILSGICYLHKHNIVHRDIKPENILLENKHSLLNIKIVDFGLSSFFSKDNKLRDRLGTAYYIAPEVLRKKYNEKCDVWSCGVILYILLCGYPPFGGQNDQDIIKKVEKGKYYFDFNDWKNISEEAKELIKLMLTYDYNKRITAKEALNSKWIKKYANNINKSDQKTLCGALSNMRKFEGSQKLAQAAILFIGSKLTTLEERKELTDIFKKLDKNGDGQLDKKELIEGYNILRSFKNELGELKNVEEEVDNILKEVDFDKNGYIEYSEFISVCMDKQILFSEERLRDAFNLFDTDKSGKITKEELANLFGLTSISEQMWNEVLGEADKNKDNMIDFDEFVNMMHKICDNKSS
Experimental: as §5, §6, §7

[4] = target: T2, cGMP-dependent protein kinase (PKG) (PF3D7_1436600) (Plasmodium falciparum, UniProt Q8I719); assay: as above; type: binding; details: lysates exposed to 40 μM of the same compound vs vehicle
T2 construct: The beads were incubated at 4°C for 1 h with either 0.1 ml (0.3 mg) Pf blood stage extract; endogenous in cells; host or cells: P. falciparum asexual blood-stage parasites (trophozoite stage), saponin-freed and lysed
T2 sequence (Q8I719 whole entry): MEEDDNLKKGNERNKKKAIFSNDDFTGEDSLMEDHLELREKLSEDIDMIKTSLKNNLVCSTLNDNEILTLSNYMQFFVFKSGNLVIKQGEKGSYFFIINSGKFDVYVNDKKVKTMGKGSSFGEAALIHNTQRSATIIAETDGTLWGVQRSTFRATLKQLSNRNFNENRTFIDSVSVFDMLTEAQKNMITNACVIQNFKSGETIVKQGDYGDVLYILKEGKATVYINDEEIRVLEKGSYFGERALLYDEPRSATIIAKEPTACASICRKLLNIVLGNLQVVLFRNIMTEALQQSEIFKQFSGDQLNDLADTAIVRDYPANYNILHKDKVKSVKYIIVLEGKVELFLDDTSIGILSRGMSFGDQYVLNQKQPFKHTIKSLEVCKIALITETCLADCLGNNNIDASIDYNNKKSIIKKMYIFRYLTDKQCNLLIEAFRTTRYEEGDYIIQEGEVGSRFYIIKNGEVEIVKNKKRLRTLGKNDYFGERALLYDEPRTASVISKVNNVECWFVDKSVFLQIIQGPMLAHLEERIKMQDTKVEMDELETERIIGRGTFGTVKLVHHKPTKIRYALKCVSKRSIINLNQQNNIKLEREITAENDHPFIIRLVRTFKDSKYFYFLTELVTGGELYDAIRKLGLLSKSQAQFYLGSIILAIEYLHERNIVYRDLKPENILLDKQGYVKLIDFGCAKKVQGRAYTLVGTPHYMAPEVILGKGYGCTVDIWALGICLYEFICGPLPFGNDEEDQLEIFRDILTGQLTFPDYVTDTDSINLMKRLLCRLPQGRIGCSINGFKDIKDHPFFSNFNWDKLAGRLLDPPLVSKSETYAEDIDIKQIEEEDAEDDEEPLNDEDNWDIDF
Experimental: Parasite cultures at the trophozoite stage were harvested, washed twice in RPMI 1640 medium (Gibco), and lysed by the addition of saponin to a final concentration of 0.1% for 5 min at room temperature. Free parasites were sedimented by centrifugation (3500 rpm for 10 min), washed three times with phosphate-buffered saline, and stored at −80°C. Parasites were resuspended in cell lysis buffer (50 mM tris-HCl (pH 7.5), 5% glycerol, 1.5 mM MgCl2, 1.5 mM NaCl, 1 mM Na3PO4, 25 mM sodium fluoride, 0.8% NP-40, EDTA-free protease inhibitor cocktail tablets (Roche Diagnostics), and 1 mM DTT) and disrupted by sonication (Sonics Vibra-Cell) using two 30-s cycles on ice at half-amplitude. […]
Kinobeads were prepared by immobilizing Bis-(III) indolyl-maleimide, purvalanol B, staurosporine and CZC8004, and the analogs of PD173955, sunitinib and vandetanib on NHS-activated Sepharose 4 beads (Amersham) ([Bantscheff et al., 2007]). […] 10 samples were measured in parallel (TMT 10-plex ([Werner et al., 2014])) to generate values for the affinity of the beads to the bound proteins (“depletion” values, 4 samples) and to generate IC50 values (6 samples) in a single experiment. Apparent dissociation constants were determined after accounting for protein depletion by the beads ([Bantscheff et al., 2011]). […]

SMILES	IC50 (sel. Dd2-B2 TKL3T1268R) [µM]	IC50 (Pf Dd2-B2 ABS parasites)	Reduction in TKL3 kinase activity [1]	other results
CC(C)(CN)c1nc(-c2ccc(Cl)c(O)c2)c(-c2ccnc(N)n2)[nH]1 [MMV030734]	0.197	0.065 µM and 0.0653 µM	no reduction	IC50 (PKG cKD line; Control, [aTc] used 50.0): 0.0208 µM; IC50 (PKG cKD line; KD, [aTc] used 1.0): 0.0084 µM; IC50 (PP1 cKD line; Control, [aTc] used 50.0): 0.0295 µM; IC50 (PP1 cKD line; KD, [aTc] used 1.5): 0.0367 µM; IC50 (TKL3 cKD line; Control, [aTc] used 50.0): 0.0375 µM; IC50 (TKL3 cKD line; KD, [aTc] used 0.0): 0.0808 µM; IC50 (URP cKD line; Control, [aTc] used 50.0): 0.034 µM; IC50 (URP cKD line; KD, [aTc] used 0.0): 0.0445 µM; IC50 (AAT cKD line; Control, [aTc] used 50.0): 0.0426 µM; IC50 (AAT cKD line; KD, [aTc] used 0.0): 0.0185 µM; IC50 (CDPK1 cKD line; Control, [aTc] used 50.0): 0.0211 µM; IC50 (CDPK1 cKD line; KD, [aTc] used 1.0): 0.018 µM
CC(C)(C)CNCC(C)(C)c1nc(-c2ccc(Cl)c(O)c2)c(-c2ccncc2)[nH]1 [TCMDC-140549]	0.287	0.21 µM		
CC(C)(CN)c1nc(-c2ccc(Br)c(O)c2)c(-c2ccncc2)[nH]1 [TCMDC-140680]	0.249	0.0859 µM		
CN1CCC=C(C(=O)NCC(C)(C)c2nc(-c3ccc(Cl)c(O)c3)c(-c3ccncc3)[nH]2)C1 [TCMDC-140700]	1.19	0.395 µM		
CNCC(C)(C)c1nc(-c2ccc(Cl)c(O)c2)c(-c2ccncc2)[nH]1.Cl [TCMDC-140762]	0.443	0.187 µM	no reduction	
CC(C)(CNC(=O)[C@H]1CCCN1)c1nc(-c2ccc(Cl)c(O)c2)c(-c2ccncc2)[nH]1 [TCMDC-141060]	0.59	0.18 µM		
CC(C)(CNC(=O)[C@H]1CCCCN1)c1nc(-c2ccc(Cl)c(O)c2)c(-c2ccncc2)[nH]1 [TCMDC-141070]	0.717	0.186 µM		
CC(C)(CNC(=O)[C@@H]1CCCCN1)c1nc(-c2ccc(Cl)c(O)c2)c(-c2ccncc2)[nH]1.Cl [TCMDC-141079]	0.771	0.25 µM	no reduction	
Cl.NCC1(c2nc(-c3ccc(Cl)c(O)c3)c(-c3ccncc3)[nH]2)CCCCC1 [TCMDC-141154]	0.369	0.14 µM		AAT pull-down by bead-bound compound [2]: pulled down; CDPK1 pull-down by bead-bound compound [3]: pulled down; PKG pull-down by bead-bound compound [4]: pulled down
